Several values for one entry are separate records, joined by “and”; a condition that tells them apart may be missing. Identical values can stand only once.
biological target: T1, APJ (Homo sapiens, UniProt P35414); test: APJ DiscoveRx PathHunter β-arrestin assay (antagonism of apelin-13); assay type: cell-based; parameters: host or cells: Angiotensin II receptor-like 1 (AGTRL-1) Cell Line (PathHunter); conditions: not given
T1 sequence (P35414 1-380): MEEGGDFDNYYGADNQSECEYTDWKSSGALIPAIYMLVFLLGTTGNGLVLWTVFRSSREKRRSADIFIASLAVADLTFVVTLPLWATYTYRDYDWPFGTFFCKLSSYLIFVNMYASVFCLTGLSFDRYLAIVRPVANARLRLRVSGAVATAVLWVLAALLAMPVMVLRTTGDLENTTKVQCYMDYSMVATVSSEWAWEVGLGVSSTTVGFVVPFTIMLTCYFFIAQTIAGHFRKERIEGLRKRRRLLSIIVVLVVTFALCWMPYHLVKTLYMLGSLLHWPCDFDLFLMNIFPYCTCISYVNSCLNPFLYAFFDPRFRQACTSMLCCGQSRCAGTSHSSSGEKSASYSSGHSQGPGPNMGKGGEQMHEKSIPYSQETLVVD
Description: The assay was incubated for 90 mins at room temperature, and then developed with 3 μL of detection reagent (PathHunter Detection Reagents (DiscoveRx, Cat#93-0001)) for 60 mins and luminescence read on a Perkin Elmer ViewLux.
(§1) All assays in Table 2, with the exception of the […] counterscreen, utilize the DiscoveRx PathHunter® β-arrestin assay technology. Unlike imaging or other second messenger assays, the DiscoveRx β-arrestin assay allows for a direct measure of GPCR activation by detection of β-arrestin binding to the APJ, and in the case of the counterscreen, the AT1 receptor. […] In cells that stably express these fusion proteins, ligand stimulation results in the interaction of β-arrestin and the ProLink-tagged GPCR, forcing the complementation of the two β-galactosidase fragments and resulting in the formation of a functional enzyme that converts substrate to detectable luminescent signal.
Assay was incubated for 90 mins at room temperature, and then developed with 3 μL of detection reagent for 60 mins and luminescence read on a Perkin Elmer ViewLux. Initial actives were retested in duplicate at the 20 μM test concentration, and reconfirmed hits retested in full dose-response for compounds from resupplied MLSMR DMSO stock solutions.

Compound | SI = Selectivity Index: (IC50 AT1)/(IC50 APJ)
O=C(Oc1coc(CSc2ncccn2)cc1=O)c1ccc(Cl)c([N+](=O)[O-])c1 [Compound 2] | >13
Cc1ccc(C(=O)Oc2coc(CSc3ncccn3)cc2=O)cc1[N+](=O)[O-] [Compound 3] | >11 and >7.2
N#Cc1ccc(C(=O)Oc2coc(CSc3ncccn3)cc2=O)cc1 [Compound 7] | >12 and >8
Cc1ccnc(SCc2cc(=O)c(OC(=O)c3ccc(C)c([N+](=O)[O-])c3)co2)n1 [Compound 30] | >17
Cc1ccnc(SCc2cc(=O)c(OC(=O)c3ccc([N+](=O)[O-])cc3)co2)n1 [Compound 33] | >25 and >23
Cc1ccnc(SCc2cc(=O)c(OC(=O)c3ccc(C#N)cc3)co2)n1 [Compound 34] | >9 and >7
Cc1cc(C)nc(SCc2cc(=O)c(OC(=O)c3ccc(Cl)c([N+](=O)[O-])c3)co2)n1 [Compound 49] | >15
Cc1cc(C)nc(SCc2cc(=O)c(OC(=O)c3ccc(C)c([N+](=O)[O-])c3)co2)n1 [Compound 50] | >3
O=C(Oc1coc(CSc2ccc(Cl)cc2)cc1=O)c1ccc(Cl)c([N+](=O)[O-])c1 [Compound 63] | >17

same assay, conditions: β-arrestin assay, n = 4 unless noted in parentheses; read-out: APJ Potency IC50 (μM) Ave. ± S.E.M.

Compound | IC50
O=C(Oc1coc(CSc2ncccn2)cc1=O)c1ccc(Cl)c([N+](=O)[O-])c1 [Compound 2] | 6.2 ± 0.77 µM
Cc1ccc(C(=O)Oc2coc(CSc3ncccn3)cc2=O)cc1[N+](=O)[O-] [Compound 3] | 7.25 µM and 10.9 µM
O=C(Oc1coc(CSc2ncccn2)cc1=O)c1cccc([N+](=O)[O-])c1 [Compound 4] | 75.7 µM
O=C(Oc1coc(CSc2ncccn2)cc1=O)c1ccc(Cl)cc1 [Compound 5] | 54.5 µM
N#Cc1ccc(C(=O)Oc2coc(CSc3ncccn3)cc2=O)cc1 [Compound 7] | 6.59 µM and 9.77 µM
O=C(Oc1coc(CSc2ncccn2)cc1=O)c1ccc(C(F)(F)F)cc1 [Compound 8] | 29 µM
O=C(Oc1coc(CSc2ncccn2)cc1=O)c1ccc(Br)cc1 [Compound 9] | 18.2 µM
O=C(Oc1coc(CSc2ncccn2)cc1=O)c1cc([N+](=O)[O-])ccc1Cl [Compound 21] | 51 µM
Cc1c(C(=O)Oc2coc(CSc3ncccn3)cc2=O)cccc1[N+](=O)[O-] [Compound 22] | 72.2 µM
Cc1ccnc(SCc2cc(=O)c(OC(=O)c3ccc(C)c([N+](=O)[O-])c3)co2)n1 [Compound 30] | 4.7 µM
Cc1ccnc(SCc2cc(=O)c(OC(=O)c3cccc([N+](=O)[O-])c3)co2)n1 [Compound 31] | 59.2 µM
Cc1ccnc(SCc2cc(=O)c(OC(=O)c3ccc([N+](=O)[O-])cc3)co2)n1 [Compound 33] | 3.11 µM and 4.32 µM
Cc1ccnc(SCc2cc(=O)c(OC(=O)c3ccc(C#N)cc3)co2)n1 [Compound 34] | 8.51 µM and 11.5 µM
Cc1ccnc(SCc2cc(=O)c(OC(=O)c3ccc(C(F)(F)F)cc3)co2)n1 [Compound 35] | 20.6 µM
Cc1ccnc(SCc2cc(=O)c(OC(=O)c3ccc(S(=O)(=O)N4CCCC4)cc3)co2)n1 [Compound 39] | 39.9 ± 8.65 µM
Cc1ccnc(SCc2cc(=O)c(OC(=O)c3cc(Cl)ccc3[N+](=O)[O-])co2)n1 [Compound 40] | 58.8 µM
Cc1ccnc(SCc2cc(=O)c(OC(=O)c3cc([N+](=O)[O-])ccc3Cl)co2)n1 [Compound 41] | 74.1 µM
Cc1cccc(C(=O)Oc2coc(CSc3nccc(C)n3)cc2=O)c1 [Compound 44] | > 79 µM
Cc1ccnc(SCc2cc(=O)c(OC(=O)c3ccccc3C)co2)n1 [Compound 46] | > 79 µM
Cc1cc(C)nc(SCc2cc(=O)c(OC(=O)c3ccc(Cl)c([N+](=O)[O-])c3)co2)n1 [Compound 49] | 5.45 ± 1.47 µM
Cc1cc(C)nc(SCc2cc(=O)c(OC(=O)c3ccc(C)c([N+](=O)[O-])c3)co2)n1 [Compound 50] | 25.3 ± 5.8 µM

Compound | IC50
Cc1cc(C)nc(SCc2cc(=O)c(OC(=O)c3ccc(S(=O)(=O)N(C)C)cc3)co2)n1 [Compound 51] | > 79 µM
Cc1cc(C)nc(SCc2cc(=O)c(OC(=O)c3cc(Cl)ccc3[N+](=O)[O-])co2)n1 [Compound 52] | > 79 µM
Cc1cc(C)nc(SCc2cc(=O)c(OC(=O)c3cc([N+](=O)[O-])ccc3Cl)co2)n1 [Compound 53] | 44.5 µM
Cc1cc(C)nc(SCc2cc(=O)c(OC(=O)c3cccc([N+](=O)[O-])c3C)co2)n1 [Compound 54] | > 79 µM
Cc1cc(C)nc(SCc2cc(=O)c(OC(=O)c3ccc(-c4nccs4)cc3)co2)n1 [Compound 55] | > 79 µM
O=c1cc(CSc2ccccc2)occ1O [Compound 56] | > 79 µM
O=c1cc(CSc2ccc(F)cc2)occ1O [Compound 57] | > 79 µM
O=c1cc(CSc2ncccn2)occ1O [Compound 58] | > 79 µM
O=C(Oc1coc(CSc2ccc(Cl)cc2)cc1=O)c1ccc(Cl)c([N+](=O)[O-])c1 [Compound 63] | 4.53 ± 0.66 µM
Cc1ccnc(SCc2cc(=O)c(OCc3ccccc3)co2)n1 [Compound 66] | > 79 µM
Cc1ccnc(SCc2cc(=O)c(OCc3ccc(Cl)c([N+](=O)[O-])c3)co2)n1 [Compound 67] | > 79 µM
Cc1ccnc(SCc2cc(=O)c(OC(=O)C(C)(C)C)co2)n1 [Compound 68] | > 79 µM
Cc1cc(C)nc(SCc2cc(=O)c(OS(=O)(=O)c3ccccc3)co2)n1 [Compound 71] | > 79 µM
Cc1cc(C)nc(SCc2cc(=O)c(OS(=O)(=O)c3ccc([N+](=O)[O-])cc3)co2)n1 [Compound 72] | > 79 µM
Cc1ccnc(SCc2cc(=O)c(NC(=O)c3ccccc3)co2)n1 [Compound 73] | > 79 µM
Cc1ccnc(SCc2cc(=O)c(NC(=O)c3ccc([N+](=O)[O-])cc3)co2)n1 [Compound 74] | > 79 µM
Cc1ccnc(SCc2cc(=O)c(OC(=O)c3ccco3)co2)n1 [Compound 75] | > 79 µM
Cc1ccnc(SCc2cc(=O)c(OC(=O)c3ccsc3)co2)n1 [Compound 76] | > 79 µM
Cc1ccnc(SCc2cc(=O)c(OC(=O)c3ccc([N+](=O)[O-])o3)co2)n1 [Compound 77] | > 79 µM
Cc1ccnc(SCc2cc(=O)c(OC(=O)c3cnco3)co2)n1 [Compound 78] | > 79 µM

biological target: T2, Angiotensin receptor 1 (AT1) (Homo sapiens, UniProt P30556); test: AT1 DiscoveRx PathHunter β-arrestin counterscreen (antagonism of angiotensin II); assay type: cell-based; conditions: β-arrestin assay, n = 4 unless noted in parentheses; read-out: AT1 Potency IC50 (μM) Ave. ± S.E.M.
T2 construct: host or cells: Angiotensin receptor 1 (AT1) Cell Line (PathHunter)
T2 sequence (P30556 1-359): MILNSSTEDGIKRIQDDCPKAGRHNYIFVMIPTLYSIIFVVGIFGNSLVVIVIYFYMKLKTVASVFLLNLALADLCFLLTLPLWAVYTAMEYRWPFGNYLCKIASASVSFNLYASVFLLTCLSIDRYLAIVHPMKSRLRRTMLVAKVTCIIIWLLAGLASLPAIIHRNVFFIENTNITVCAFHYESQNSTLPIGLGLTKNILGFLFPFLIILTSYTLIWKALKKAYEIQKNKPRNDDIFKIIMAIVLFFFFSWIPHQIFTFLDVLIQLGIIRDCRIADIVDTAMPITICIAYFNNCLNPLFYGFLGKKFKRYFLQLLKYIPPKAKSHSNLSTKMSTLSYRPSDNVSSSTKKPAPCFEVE
Text: as §1
Next, varying volumes of stock test compounds in DMSO were transferred to each well to achieve appropriate dose response concentrations and range. DMSO was backfilled into each test compound well to a total volume of 80 nL to achieve equal concentration of DMSO in all wells. This was followed by an addition of 1 μL of 300 nM reference agonist, Angiotensin II, to the negative and test compound wells, and 1 μL of assay media to positive control wells. The assay was incubated for 90 mins at room temperature, and then developed with 3 μL of detection reagent for 60 mins and luminescence read on a Perkin Elmer ViewLux.

Compound | IC50
N#Cc1ccc(C(=O)Oc2coc(CSc3ncccn3)cc2=O)cc1 [Compound 7] | > 79 µM
O=C(Oc1coc(CSc2ncccn2)cc1=O)c1cc([N+](=O)[O-])ccc1Cl [Compound 21] | 60.1 ± 1.35 µM
Cc1ccnc(SCc2cc(=O)c(OC(=O)c3ccccc3Cl)co2)n1 [Compound 42] | > 79 µM
Cc1cccc(C(=O)Oc2coc(CSc3nccc(C)n3)cc2=O)c1 [Compound 44] | > 79 µM
Cc1ccnc(SCc2cc(=O)c(OC(=O)c3ccccc3C)co2)n1 [Compound 46] | > 79 µM
Cc1cc(C)nc(SCc2cc(=O)c(OC(=O)c3ccc(Cl)c([N+](=O)[O-])c3)co2)n1 [Compound 49] | > 79 µM
Cc1cc(C)nc(SCc2cc(=O)c(OC(=O)c3ccc(C)c([N+](=O)[O-])c3)co2)n1 [Compound 50] | > 79 µM
Cc1cc(C)nc(SCc2cc(=O)c(OC(=O)c3ccc(S(=O)(=O)N(C)C)cc3)co2)n1 [Compound 51] | > 79 µM
Cc1cc(C)nc(SCc2cc(=O)c(OC(=O)c3cc(Cl)ccc3[N+](=O)[O-])co2)n1 [Compound 52] | 49.7 ± 6.74 µM
Cc1cc(C)nc(SCc2cc(=O)c(OC(=O)c3cc([N+](=O)[O-])ccc3Cl)co2)n1 [Compound 53] | 49.7 ± 6.74 µM
Cc1cc(C)nc(SCc2cc(=O)c(OC(=O)c3cccc([N+](=O)[O-])c3C)co2)n1 [Compound 54] | > 79 µM
Cc1cc(C)nc(SCc2cc(=O)c(OC(=O)c3ccc(-c4nccs4)cc3)co2)n1 [Compound 55] | > 79 µM
O=c1cc(CSc2ccccc2)occ1O [Compound 56] | > 79 µM
O=c1cc(CSc2ccc(F)cc2)occ1O [Compound 57] | > 79 µM
O=c1cc(CSc2ncccn2)occ1O [Compound 58] | > 79 µM
O=C(Oc1coc(CSc2ccc(Cl)cc2)cc1=O)c1ccc(Cl)c([N+](=O)[O-])c1 [Compound 63] | > 79 µM
Cc1ccnc(SCc2cc(=O)c(OCc3ccccc3)co2)n1 [Compound 66] | > 79 µM
Cc1ccnc(SCc2cc(=O)c(OCc3ccc(Cl)c([N+](=O)[O-])c3)co2)n1 [Compound 67] | > 79 µM
Cc1ccnc(SCc2cc(=O)c(OC(=O)C(C)(C)C)co2)n1 [Compound 68] | > 79 µM
Cc1cc(C)nc(SCc2cc(=O)c(OS(=O)(=O)c3ccccc3)co2)n1 [Compound 71] | > 79 µM
Cc1cc(C)nc(SCc2cc(=O)c(OS(=O)(=O)c3ccc([N+](=O)[O-])cc3)co2)n1 [Compound 72] | > 79 µM
Cc1ccnc(SCc2cc(=O)c(NC(=O)c3ccccc3)co2)n1 [Compound 73] | > 79 µM
Cc1ccnc(SCc2cc(=O)c(NC(=O)c3ccc([N+](=O)[O-])cc3)co2)n1 [Compound 74] | > 79 µM
Cc1ccnc(SCc2cc(=O)c(OC(=O)c3ccco3)co2)n1 [Compound 75] | > 79 µM
Cc1ccnc(SCc2cc(=O)c(OC(=O)c3ccsc3)co2)n1 [Compound 76] | > 79 µM
Cc1ccnc(SCc2cc(=O)c(OC(=O)c3ccc([N+](=O)[O-])o3)co2)n1 [Compound 77] | > 79 µM
Cc1ccnc(SCc2cc(=O)c(OC(=O)c3cnco3)co2)n1 [Compound 78] | > 79 µM

Reference: US20140005181A1, “SMALL MOLECULE ANTAGONISTS OF THE APELIN RECEPTOR FOR THE TREATMENT OF DISEASE” (Sanford-Burnham Medical Research Institute, priority 2012, published 2014)
